ChEMBL document CHEMBL1201862, “PubChem BioAssay data set” (2004)
“And” between values parts separate entries of the source, which are not always exact repeats. Equal entries are not always repeated. The source made the active and inactive calls.

Tests used:
[1] = test system: HEK293; experiment: inhibition of NOD1-driven NF-kB reporter – cell-based, luminescence, uHTS, primary screen (AID 1578); assay type: functional; details: Homo sapiens
[2] = test system: HEK293; experiment: cells; assay type: functional, cell-based; details: Homo sapiens
[3] = test system: HEK293; experiment: cells; assay type: functional, cell-based; details: Homo sapiens; remark: listed apart in the source
[4] = test system: HEK293; experiment: NOD2 signaling inhibitors in MDP-stimulated cells, cell-based, uHTS, luminescence (AID 2001); assay type: functional; details: Homo sapiens
[5] = target: Tumor necrosis factor (Homo sapiens, UniProt P01375); experiment: analog potency on TNFa NF-kB signaling – cell-based, revised, SAR follow-up (AID 2337); assay type: functional
Tumor necrosis factor, sequence (P01375 whole entry, the tested form may be a part): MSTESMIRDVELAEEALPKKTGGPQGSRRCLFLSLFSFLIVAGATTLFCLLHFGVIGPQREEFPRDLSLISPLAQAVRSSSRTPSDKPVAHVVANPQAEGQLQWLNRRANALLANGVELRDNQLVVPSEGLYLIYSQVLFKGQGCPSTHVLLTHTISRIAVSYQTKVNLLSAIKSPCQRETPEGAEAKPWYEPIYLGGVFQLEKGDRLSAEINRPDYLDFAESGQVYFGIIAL

[6] = target: Nucleotide-binding oligomerization domain-containing protein 1 (Homo sapiens, UniProt Q9Y239); experiment: blockers of NOD1 pathway activity – revised, SAR follow-up (AID 2333); assay type: functional
Nucleotide-binding oligomerization domain-containing protein 1, sequence (Q9Y239 whole entry, the tested form may be a part): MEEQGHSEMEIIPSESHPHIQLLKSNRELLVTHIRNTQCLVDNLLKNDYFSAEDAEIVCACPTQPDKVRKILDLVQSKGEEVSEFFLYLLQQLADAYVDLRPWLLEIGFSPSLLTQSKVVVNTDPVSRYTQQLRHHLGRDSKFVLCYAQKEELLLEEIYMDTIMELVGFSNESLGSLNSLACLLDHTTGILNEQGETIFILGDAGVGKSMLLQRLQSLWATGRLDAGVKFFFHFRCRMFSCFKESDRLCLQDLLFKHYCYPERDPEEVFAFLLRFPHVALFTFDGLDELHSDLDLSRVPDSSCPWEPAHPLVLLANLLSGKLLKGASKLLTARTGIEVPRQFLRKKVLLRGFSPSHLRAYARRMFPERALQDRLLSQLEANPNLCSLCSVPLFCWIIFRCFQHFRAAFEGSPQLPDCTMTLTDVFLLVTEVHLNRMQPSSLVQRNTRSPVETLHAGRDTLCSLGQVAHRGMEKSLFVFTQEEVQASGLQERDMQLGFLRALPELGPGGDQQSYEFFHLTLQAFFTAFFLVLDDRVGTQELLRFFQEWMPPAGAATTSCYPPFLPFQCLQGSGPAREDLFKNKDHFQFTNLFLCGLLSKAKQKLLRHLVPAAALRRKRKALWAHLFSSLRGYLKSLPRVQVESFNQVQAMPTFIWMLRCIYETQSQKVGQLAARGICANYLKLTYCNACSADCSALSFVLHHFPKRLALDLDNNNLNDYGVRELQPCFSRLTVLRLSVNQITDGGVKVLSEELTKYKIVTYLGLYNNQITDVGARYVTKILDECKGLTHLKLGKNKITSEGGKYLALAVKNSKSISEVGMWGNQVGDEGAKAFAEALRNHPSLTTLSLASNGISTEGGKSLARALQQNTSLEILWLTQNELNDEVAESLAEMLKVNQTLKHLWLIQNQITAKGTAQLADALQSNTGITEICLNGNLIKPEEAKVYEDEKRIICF

[7] = target: Nucleotide-binding oligomerization domain-containing protein 2 (Homo sapiens, UniProt Q9HC29); experiment: PubChem AID 2334; assay type: functional
[8] = target: T1, Long-chain-fatty-acid--AMP ligase FadD28 (Mycobacterium tuberculosis, UniProt P9WQ59); experiment: Fluorescence polarization aasay to screen for inhibitors that compete for the binding of FadD28 to a bisubstrate Measured in Biochemical System Using Plate Reader - 2147-01_Inhibitor_Dose_CherryPick_Activity.; assay type: functional, Mycobacterium tuberculosis H37Rv
T1 sequence (P9WQ59 whole entry): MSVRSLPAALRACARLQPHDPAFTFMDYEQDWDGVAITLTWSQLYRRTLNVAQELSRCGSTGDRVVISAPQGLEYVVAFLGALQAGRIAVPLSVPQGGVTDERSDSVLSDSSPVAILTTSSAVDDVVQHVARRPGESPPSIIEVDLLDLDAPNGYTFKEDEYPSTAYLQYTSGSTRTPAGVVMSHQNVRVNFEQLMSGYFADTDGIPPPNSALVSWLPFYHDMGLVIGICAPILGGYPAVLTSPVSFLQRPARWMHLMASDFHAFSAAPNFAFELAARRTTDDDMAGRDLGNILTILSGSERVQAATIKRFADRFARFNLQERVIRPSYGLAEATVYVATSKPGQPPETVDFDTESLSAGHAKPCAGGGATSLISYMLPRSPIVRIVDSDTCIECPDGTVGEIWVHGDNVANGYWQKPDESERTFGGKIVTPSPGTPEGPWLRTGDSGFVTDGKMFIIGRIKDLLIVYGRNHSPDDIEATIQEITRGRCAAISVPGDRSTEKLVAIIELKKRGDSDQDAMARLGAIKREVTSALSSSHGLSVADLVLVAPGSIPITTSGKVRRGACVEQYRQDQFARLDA

[9] = test system: HEK293; experiment: cells; details: Homo sapiens
[10] = test system: Vero; experiment: cells; assay type: functional, cell-based; details: Chlorocebus sabaeus
[11] = A Cell-Based Counter Screen testing Compounds that Inhibit VEEV TC-83, in strain KU V3526.; assay type: functional
[12] = A Cell-Based Confirmatory Screen for Compounds that Inhibit VEEV, TC-83 (8).; assay type: functional
[13] = A Cell-Based Confirmatory Screen for Compounds that Inhibit VEEV, TC-83 (2).; assay type: functional
[14] = A Cell-Based Confirmatory Screen for Compounds that Inhibit VEEV, TC-83 (3).; assay type: functional
[15] = A Cell-Based Confirmatory Screen for Compounds that Inhibit VEEV, TC-83 (6).; assay type: functional
[16] = A Cell-Based Confirmatory Screen for Compounds that Inhibit VEEV TC-83 (4).; assay type: functional
[17] = A Cell-Based Confirmatory Screen for Compounds that Inhibit VEEV, TC-83 (7).; assay type: functional
[18] = target: Lysine-specific demethylase 4C (Homo sapiens, UniProt Q9H3R0); experiment: inhibition of JMJD2C H3K9me3 demethylation – biochemical, DELFIA europium, cherry-picked samples, dose response (AID 488835); assay type: functional
Lysine-specific demethylase 4C, sequence (Q9H3R0 whole entry): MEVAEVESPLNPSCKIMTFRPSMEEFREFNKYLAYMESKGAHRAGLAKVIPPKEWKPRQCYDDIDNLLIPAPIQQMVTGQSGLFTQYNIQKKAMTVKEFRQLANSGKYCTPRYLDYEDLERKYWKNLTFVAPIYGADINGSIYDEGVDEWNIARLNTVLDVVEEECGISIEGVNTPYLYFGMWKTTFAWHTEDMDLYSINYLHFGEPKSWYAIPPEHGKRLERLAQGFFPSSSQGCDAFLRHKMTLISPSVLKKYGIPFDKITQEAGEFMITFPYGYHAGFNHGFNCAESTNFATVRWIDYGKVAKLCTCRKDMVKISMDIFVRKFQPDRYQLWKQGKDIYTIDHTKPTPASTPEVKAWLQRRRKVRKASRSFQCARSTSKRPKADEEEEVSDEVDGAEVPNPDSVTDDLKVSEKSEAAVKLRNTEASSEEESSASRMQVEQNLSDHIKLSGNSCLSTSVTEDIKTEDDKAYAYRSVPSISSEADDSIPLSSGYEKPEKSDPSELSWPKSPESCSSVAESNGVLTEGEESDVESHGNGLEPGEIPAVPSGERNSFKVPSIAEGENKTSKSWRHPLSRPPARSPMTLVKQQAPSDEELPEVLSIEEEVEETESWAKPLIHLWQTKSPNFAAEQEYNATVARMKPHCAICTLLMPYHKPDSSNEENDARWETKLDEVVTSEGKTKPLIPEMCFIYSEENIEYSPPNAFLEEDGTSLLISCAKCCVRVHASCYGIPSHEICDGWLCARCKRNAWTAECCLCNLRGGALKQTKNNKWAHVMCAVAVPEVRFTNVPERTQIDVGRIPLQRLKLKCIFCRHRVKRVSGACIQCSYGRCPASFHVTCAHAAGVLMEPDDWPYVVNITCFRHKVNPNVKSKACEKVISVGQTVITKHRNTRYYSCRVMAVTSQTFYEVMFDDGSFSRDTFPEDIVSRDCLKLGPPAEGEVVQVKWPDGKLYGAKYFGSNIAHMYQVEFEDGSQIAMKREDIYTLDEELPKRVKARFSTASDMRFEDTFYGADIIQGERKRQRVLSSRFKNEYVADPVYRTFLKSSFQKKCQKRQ

[19] = test system: BJ; experiment: BJ-TERT fibroblast viability loss – cell-based, RAS-independent, luminescence, dose response (AID 1933); assay type: functional; details: Homo sapiens
[20] = test system: BJ; experiment: cells; assay type: functional, cell-based; details: Homo sapiens
[21] = test system: BJ; experiment: BJ-TERT-LT-ST fibroblast viability loss – cell-based, RAS-independent, luminescence, dose response (AID 1935); assay type: functional; details: Homo sapiens;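 also: BJ fibroblasts immortalized with TERT plus LT and ST oncogenes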
[22] = DRD fibroblast viability loss – cell-based, non-viral oncogenic, luminescence, dose response (AID 1934); assay type: functional; details: Homo sapiens
[23] = target: Intestinal-type alkaline phosphatase (Mus musculus, UniProt P24822); experiment: PubChem AID 488785; assay type: functional
Intestinal-type alkaline phosphatase (Mus musculus, UniProt P24822), sequence (P24822 whole entry): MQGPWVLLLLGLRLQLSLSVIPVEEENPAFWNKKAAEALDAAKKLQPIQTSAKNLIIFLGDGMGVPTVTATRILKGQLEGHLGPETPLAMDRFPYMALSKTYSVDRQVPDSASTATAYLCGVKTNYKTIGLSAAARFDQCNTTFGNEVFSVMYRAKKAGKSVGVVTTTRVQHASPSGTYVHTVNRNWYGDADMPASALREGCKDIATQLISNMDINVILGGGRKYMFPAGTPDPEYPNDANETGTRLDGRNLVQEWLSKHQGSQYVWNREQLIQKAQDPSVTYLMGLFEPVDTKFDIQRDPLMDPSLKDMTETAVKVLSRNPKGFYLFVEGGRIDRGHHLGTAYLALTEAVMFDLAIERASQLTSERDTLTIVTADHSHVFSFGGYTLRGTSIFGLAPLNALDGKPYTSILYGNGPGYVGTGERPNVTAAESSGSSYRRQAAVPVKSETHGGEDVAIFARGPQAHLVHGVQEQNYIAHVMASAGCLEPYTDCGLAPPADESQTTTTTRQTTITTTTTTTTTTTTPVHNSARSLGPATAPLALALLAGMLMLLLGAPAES

[24] = target: T2, Alkaline phosphatase, tissue-nonspecific isozyme (Homo sapiens, UniProt P05186); experiment: TNAP enzyme inhibition by screening hits, dose response, selectivity assay for mouse IAP inhibitor project, biochemical, human TNAP, uHTS hits (AID 488906); assay type: functional
T2 sequence (P05186 whole entry): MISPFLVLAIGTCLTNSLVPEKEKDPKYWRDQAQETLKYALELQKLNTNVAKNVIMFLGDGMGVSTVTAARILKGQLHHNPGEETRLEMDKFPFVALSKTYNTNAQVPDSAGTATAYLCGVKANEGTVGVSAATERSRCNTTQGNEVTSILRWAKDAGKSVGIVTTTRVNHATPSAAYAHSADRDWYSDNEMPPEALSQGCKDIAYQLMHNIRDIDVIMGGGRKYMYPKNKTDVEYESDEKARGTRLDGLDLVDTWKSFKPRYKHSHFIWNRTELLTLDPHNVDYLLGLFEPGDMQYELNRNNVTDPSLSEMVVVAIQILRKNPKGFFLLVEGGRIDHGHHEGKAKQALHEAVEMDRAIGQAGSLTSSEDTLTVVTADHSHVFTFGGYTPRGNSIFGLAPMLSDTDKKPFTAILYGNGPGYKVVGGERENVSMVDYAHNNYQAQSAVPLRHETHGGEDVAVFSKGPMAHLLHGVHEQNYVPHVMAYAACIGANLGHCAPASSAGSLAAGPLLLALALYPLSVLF

[25] = target: Intestinal-type alkaline phosphatase (Homo sapiens, UniProt P09923); experiment: inhibition of human intestinal alkaline phosphatase – biochemical, dose response (AID 488876); assay type: functional
Intestinal-type alkaline phosphatase (Homo sapiens, UniProt P09923), sequence (P09923 whole entry): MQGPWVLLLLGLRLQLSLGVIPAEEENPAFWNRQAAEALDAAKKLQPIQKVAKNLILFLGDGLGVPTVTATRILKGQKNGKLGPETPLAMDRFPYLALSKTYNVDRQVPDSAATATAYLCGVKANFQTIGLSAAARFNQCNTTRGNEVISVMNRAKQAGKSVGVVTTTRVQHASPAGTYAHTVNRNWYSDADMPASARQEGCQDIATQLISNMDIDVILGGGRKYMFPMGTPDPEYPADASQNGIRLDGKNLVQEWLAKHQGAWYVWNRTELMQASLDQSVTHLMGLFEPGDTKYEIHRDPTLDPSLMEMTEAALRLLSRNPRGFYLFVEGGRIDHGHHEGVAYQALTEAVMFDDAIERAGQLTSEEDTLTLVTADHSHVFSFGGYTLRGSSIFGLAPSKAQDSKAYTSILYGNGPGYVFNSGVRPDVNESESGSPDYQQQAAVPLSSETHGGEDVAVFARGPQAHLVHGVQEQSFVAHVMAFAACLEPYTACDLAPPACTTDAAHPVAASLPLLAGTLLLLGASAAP

[26] = target: Phospholipase D1 (Homo sapiens, UniProt Q13393); experiment: PLD1 purified enzyme concentration response. [Related pubchem assays (depositor defined):AID588854]; assay type: functional
Phospholipase D1, sequence (Q13393 whole entry): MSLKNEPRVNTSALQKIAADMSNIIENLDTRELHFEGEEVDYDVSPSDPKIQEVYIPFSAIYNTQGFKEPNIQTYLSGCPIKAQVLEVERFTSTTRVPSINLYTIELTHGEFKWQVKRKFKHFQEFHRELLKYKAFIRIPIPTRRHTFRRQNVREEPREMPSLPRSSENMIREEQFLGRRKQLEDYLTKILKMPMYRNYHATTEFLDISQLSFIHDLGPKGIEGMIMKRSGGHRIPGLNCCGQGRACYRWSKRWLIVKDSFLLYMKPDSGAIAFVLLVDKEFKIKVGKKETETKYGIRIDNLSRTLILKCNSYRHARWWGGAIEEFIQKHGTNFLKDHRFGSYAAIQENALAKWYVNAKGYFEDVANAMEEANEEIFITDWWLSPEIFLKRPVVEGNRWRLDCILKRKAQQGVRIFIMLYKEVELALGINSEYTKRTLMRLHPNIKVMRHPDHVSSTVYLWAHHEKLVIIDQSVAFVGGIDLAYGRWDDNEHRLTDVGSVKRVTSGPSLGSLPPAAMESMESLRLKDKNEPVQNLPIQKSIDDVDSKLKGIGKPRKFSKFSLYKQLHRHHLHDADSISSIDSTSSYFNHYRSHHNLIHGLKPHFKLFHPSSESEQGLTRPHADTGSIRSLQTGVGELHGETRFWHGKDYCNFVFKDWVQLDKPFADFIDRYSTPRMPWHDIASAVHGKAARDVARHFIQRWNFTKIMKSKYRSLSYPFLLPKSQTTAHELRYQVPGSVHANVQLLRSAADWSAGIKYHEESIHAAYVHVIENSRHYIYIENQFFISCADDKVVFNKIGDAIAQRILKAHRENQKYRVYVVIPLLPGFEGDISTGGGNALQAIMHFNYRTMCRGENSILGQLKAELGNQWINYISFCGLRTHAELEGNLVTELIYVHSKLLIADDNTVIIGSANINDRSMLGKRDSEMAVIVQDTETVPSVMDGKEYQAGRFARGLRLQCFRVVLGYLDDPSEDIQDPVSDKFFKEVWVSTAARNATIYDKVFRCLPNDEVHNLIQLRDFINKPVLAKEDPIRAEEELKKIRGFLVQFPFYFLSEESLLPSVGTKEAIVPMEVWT

Structure (SMILES): COc1cc(/C=C2/C(=O)NN(c3cccc(Cl)c3)C2=O)cc(Br)c1O
- EC50 [1]: 8.57 µM (active)
- IC50 [2]: > 20 µM (inactive)
- IC50 [3]: > 20 µM (inactive)
- IC50 [4]: > 20 µM (inactive)
- IC50 [5]: > 20 µM (inactive)
- IC50 [6]: 3.49 µM (active)
- IC50 [7]: > 20 µM (inactive)
- AC50 [8]: > 100 µM (inactive)
- IC50 [9]: > 20 µM (inactive)

Structure (SMILES): CCN1CCN(Cc2nc3ccc([N+](=O)[O-])cc3c(=O)n2-c2ccccc2F)CC1
- IC50 [10]: 1.91 µM (active)
- IC50 [11]: 0.97 µM (active)
- IC50 [12]: 810 nM (active) and 695 nM (active)
- IC50 [13]: 0.97 µM (active)
- IC50 [14]: < 0.96 µM (active)
- IC50 [15]: 1.01 µM (active)
- IC50 [16]: 0.67 µM (active)
- IC50 [17]: 0.81 µM (active)

Structure (SMILES): Cc1ccc(NN=Nc2nc3c(=O)n(C)c(=O)n(C)c3[nH]2)cc1
- AC50 [18]: 24.7 µM (active)

Structure (SMILES): CC(C)=CCc1c(O)c(CC=C(C)C)c2c(c1O)-c1cc(O)c(O)cc1CC2
- EC50 [19]: 8.58 µM (inconclusive)
- EC50 [20]: > 150 µM (not active)
- EC50 [21]: > 75 µM (inconclusive)
- EC50 [22]: 14.7 µM (active)
- IC50 [23]: 5.45 µM (active)
- IC50 [24]: > 100 µM (inactive)
- IC50 [25]: > 100 µM (inactive)

Structure (SMILES): O=C(NCCN1CCC2(CC1)C(=O)NCN2c1ccccc1)c1cnc2ccccc2c1
- IC50 [26]: 20 µM (active)
